Where two headings read alike, the source gives them in different places.
Experiments:
xanthine oxidase = xanthine oxidase (Homo sapiens (Human), UniProt P47989); test: XO (Xanthine Oxidase) inhibition activity assay; assay type: biochemical; details: substrate xanthine, absorbance at 290 nm
Method: Then the diluted solution was added to a 384 well plate at 30 μL/well, and then to each well was added 30 μL of 21 mU/mL xanthine oxidase. […] After being incubated at room temperature for 5 min, absorbance at 290 nm was read by using PHERAstar FS microplate reader.

hURAT1 = hURAT1 (Homo sapiens (Human), UniProt Q96S37); test: URAT1 (urate anion transporter) inhibition activity assay: [8-14C] uric acid absorption inhibition in HEK293T cell line stably expressing hURAT1; assay type: cell-based; details: [8-14C] uric acid uptake, HEK293T cells stably expressing hURAT1
Description: Inhibition ratio (%)=[1−(^14C uptaken by drug well−^14C uptaken by negative well)/(^14C uptaken by buffer well−^14C uptaken by negative well)]×100;
Wherein, the negative well was unvaccinated cell line […].

[1] = Pharmacokinetic evaluation in SD rats; assay type: in vivo
Method: SD rats were fasted for 15 h overnight and grouped randomly according to body weight. The test compound was dissolved in a solution of 5% DMSO+5% Solutol+90% Saline. For intravenous administration of the test group, the animals were administered with a dose of 1 mg/kg; for oral administration of the test group, the animals were administered with a dose of 5 mg/kg. Then venous blood (approximately 0.2 mL) was collected at the time point of 0, 0.083 (only intravenous injection group), 0.25, 0.5, 1.0, 2.0, 5.0, 7.0 and 24 h after drug administration. The venous blood was placed in EDTAK2 anticoagulant tube and centrifuged at 11000 rpm for 2 min. Plasma was collected and stored at −20° C. or at −70° C. until LC/MS/MS analysis. The drug concentration in plasma was measured at each time point, and pharmacokinetic parameters were calculated according to the curve of drug concentration-time.

[2] = rat, plasma, SD rats, iv, 1 mg/kg
[3] = rat, plasma, SD rats, iv, 1 mg/kg, read-out: Cmax
[4] = rat, plasma, SD rats, po, 5 mg/kg

xanthine oxidase, sequence (P47989 whole entry, species assumed): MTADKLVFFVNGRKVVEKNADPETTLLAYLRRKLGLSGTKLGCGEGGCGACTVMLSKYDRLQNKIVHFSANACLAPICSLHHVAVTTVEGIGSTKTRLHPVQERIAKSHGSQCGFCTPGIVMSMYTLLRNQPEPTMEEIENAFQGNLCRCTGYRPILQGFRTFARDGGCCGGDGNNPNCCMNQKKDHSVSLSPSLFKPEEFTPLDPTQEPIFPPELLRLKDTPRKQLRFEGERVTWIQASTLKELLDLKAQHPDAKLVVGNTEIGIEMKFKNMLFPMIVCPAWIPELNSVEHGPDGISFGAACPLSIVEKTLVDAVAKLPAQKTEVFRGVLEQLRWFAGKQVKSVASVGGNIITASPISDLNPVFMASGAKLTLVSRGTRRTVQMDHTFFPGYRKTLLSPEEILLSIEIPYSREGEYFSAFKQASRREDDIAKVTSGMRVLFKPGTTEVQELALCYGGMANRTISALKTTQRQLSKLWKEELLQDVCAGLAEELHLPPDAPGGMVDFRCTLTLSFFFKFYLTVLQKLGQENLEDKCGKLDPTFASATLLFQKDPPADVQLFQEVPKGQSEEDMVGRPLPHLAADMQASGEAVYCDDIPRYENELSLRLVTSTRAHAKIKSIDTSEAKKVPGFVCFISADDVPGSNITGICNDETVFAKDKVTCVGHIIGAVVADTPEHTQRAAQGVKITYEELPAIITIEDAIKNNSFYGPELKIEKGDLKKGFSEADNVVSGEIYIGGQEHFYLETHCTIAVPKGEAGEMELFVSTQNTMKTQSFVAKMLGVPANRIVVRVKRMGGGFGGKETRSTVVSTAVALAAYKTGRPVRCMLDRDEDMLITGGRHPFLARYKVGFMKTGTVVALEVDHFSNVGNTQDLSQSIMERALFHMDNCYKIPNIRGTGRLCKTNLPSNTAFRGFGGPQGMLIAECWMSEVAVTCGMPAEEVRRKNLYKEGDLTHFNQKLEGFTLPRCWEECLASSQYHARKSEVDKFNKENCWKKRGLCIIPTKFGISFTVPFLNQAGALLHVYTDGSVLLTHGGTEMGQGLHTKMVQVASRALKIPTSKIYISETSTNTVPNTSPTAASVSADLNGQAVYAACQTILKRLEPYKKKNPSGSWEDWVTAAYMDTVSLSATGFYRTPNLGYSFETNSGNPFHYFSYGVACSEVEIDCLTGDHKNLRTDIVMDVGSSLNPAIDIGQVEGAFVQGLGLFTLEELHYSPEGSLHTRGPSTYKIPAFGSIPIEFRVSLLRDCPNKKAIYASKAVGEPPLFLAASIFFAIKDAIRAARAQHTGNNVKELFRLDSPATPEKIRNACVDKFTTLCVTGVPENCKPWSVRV
hURAT1, sequence (Q96S37 whole entry): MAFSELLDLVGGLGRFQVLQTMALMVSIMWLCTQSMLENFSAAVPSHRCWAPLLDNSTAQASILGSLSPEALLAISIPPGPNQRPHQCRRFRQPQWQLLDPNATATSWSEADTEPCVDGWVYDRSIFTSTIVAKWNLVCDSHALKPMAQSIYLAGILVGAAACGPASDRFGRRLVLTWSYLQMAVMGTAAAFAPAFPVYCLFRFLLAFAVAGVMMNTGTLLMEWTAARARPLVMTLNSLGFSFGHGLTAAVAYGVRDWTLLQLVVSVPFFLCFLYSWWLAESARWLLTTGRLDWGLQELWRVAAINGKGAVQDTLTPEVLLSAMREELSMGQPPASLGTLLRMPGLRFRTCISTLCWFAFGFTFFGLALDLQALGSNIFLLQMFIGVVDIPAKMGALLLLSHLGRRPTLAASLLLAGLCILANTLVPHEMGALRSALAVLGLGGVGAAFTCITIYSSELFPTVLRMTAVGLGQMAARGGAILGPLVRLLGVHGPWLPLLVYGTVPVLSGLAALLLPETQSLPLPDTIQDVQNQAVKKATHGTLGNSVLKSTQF

Compound: N#Cc1cc(-c2ccc(C(=O)O)c(O)c2)c2[nH]ccc2c1 [Example 7, 4-(5-cyano-1H-indol-7-yl)-2-hydroxybenzoic Acid]
- IC50 (xanthine oxidase): 10.9 nM
- IC50 (hURAT1): 2880 nM

Compound: N#Cc1cc(-c2ccc(C(=O)O)c(O)c2)c2ccoc2c1 [Example 21, 4-(6-cyanobenzofuran-4-yl)-2-hydroxybenzoic Acid]
- IC50 (xanthine oxidase): 39.5 nM
- IC50 (hURAT1): 172 nM

Compound: N#Cc1cc(-c2ccc(C(=O)O)c(O)c2)c2ccccc2c1 [Example 2, 4-(3-cyanonaphthalene-1-yl)-2-hydroxybenzoic Acid]
- F ([1]; SD rats, po 5 mg/kg vs iv 1 mg/kg): 74.9%
- AUC(0-inf) [1, 2]: 2210 ng·h/mL
- AUC(0-t) [1, 2]: 2170 ng·h/mL
- MRT inf [1, 2]: 1.86 h
- Tmax [1, 2]: 0.083 h
- half-life [1, 2]: 3.1 h
- clearance ([1]; rat, plasma, SD rats, iv, 1 mg/kg, read-out: Cl): 7.59 mL/min/kg
- Cmax [1, 3]: 4380 ng/mL
- Vd ([1]; rat, plasma, SD rats, iv, 1 mg/kg, read-out: Vss): 0.828 L/kg
- AUC(0-inf) [1, 4]: 8140 ng·h/mL
- AUC(0-t) [1, 4]: 8130 ng·h/mL
- MRT inf [1, 4]: 1.5 h
- Tmax [1, 4]: 0.417 h
- half-life [1, 4]: 3.86 h
- Cmax ([1]; rat, plasma, SD rats, po, 5 mg/kg, read-out: Cmax): 6290 ng/mL

Compound: N#Cc1cc(-c2ccc(C(=O)O)c(O)c2)c2oc(F)cc2c1 [Example 29, 4-(5-cyano-2-fluorobenzofuran-7-yl)-2-hydroxybenzoic Acid]
- IC50 (xanthine oxidase): 34.6 nM
- IC50 (hURAT1): 38 nM
- F ([1]; SD, rat, in vivo): 145%
- AUClast ([1]; SD, rat, in vivo, iv, 1 mg/kg): 10900 ng·h/mL
- Cl ([1]; SD, rat, in vivo, iv, 1 mg/kg): 1.51 mL/min/kg
- Vd ([1]; SD, rat, in vivo, iv, 1 mg/kg): 0.311 L/kg
- AUClast ([1]; SD, rat, in vivo, po, 5 mg/kg): 81700 ng·h/mL
- T1/2 ([1]; SD, rat, in vivo, po, 5 mg/kg): 2.84 h
- AUC(0-inf) [1, 2]: 11300 ng·h/mL
- MRT inf [1, 2]: 3.49 h
- Tmax [1, 2]: 0.083 h
- half-life [1, 2]: 2.76 h
- Cmax [1, 3]: 4540 ng/mL
- AUC(0-inf) [1, 4]: 82100 ng·h/mL
- MRT inf [1, 4]: 3.8 h
- Tmax [1, 4]: 1.33 h

Compound: N#Cc1cc(-c2ccc(C(=O)O)c(O)c2)c2oc(Cl)cc2c1 [Example 40, 4-(2-chloro-5-cyanobenzofuran-7-yl)-2-hydroxybenzoic Acid]
- IC50 (xanthine oxidase): 53.6 nM
- IC50 (hURAT1): 30 nM
- F ([1]; SD, rat, in vivo): 94%
- AUClast ([1]; SD, rat, in vivo, iv, 1 mg/kg): 5480 ng·h/mL
- Cl ([1]; SD, rat, in vivo, iv, 1 mg/kg): 2.77 mL/min/kg
- Vd ([1]; SD, rat, in vivo, iv, 1 mg/kg): 0.401 L/kg
- AUClast ([1]; SD, rat, in vivo, po, 5 mg/kg): 28100 ng·h/mL
- Cmax ([1]; SD, rat, in vivo, po, 5 mg/kg): 3700 ng/mL
- T1/2 ([1]; SD, rat, in vivo, po, 5 mg/kg): 3.05 h
- AUC(0-inf) [1, 2]: 6020 ng·h/mL
- MRT inf [1, 2]: 2.42 h
- Tmax [1, 2]: 0.083 h
- half-life [1, 2]: 2.33 h
- Cmax [1, 3]: 4090 ng/mL
- AUC(0-inf) [1, 4]: 28200 ng·h/mL
- MRT inf [1, 4]: 4.95 h
- Tmax [1, 4]: 0.5 h

Compound: N#Cc1cc(-c2ccc(C(=O)O)c(O)c2)c2ccsc2c1 [Example 31, 4-(6-cyanobenzo[b]thiophen-4-yl)-2-hydroxybenzoic Acid]
- IC50 (xanthine oxidase): 57.8 nM
- IC50 (hURAT1): 45 nM

Compound: N#Cc1cc(-c2ccc(C(=O)O)c(O)c2)c2occc2c1 [Example 1, 4-(5-cyanobenzofuran-7-yl)-2-hydroxybenzoic Acid]
- IC50 (xanthine oxidase): 19.6 nM
- IC50 (hURAT1): 140 nM
- F ([1]; SD, rat, in vivo): 131%
- AUClast ([1]; SD, rat, in vivo, iv, 1 mg/kg): 6860 ng·h/mL
- Vd ([1]; SD, rat, in vivo, iv, 1 mg/kg): 0.399 L/kg
- clearance ([1]; SD, rat, in vivo, iv, 1 mg/kg): 2.4 mL/min/kg
- AUClast ([1]; SD, rat, in vivo, po, 5 mg/kg): 44400 ng·h/mL
- T1/2 ([1]; SD, rat, in vivo, po, 5 mg/kg): 3.45 h
- AUC(0-inf) [1, 2]: 7000 ng·h/mL
- MRT inf [1, 2]: 2.84 h
- Tmax [1, 2]: 0.083 h
- half-life [1, 2]: 1.53 h
- Cmax [1, 3]: 6030 ng/mL
- AUC(0-inf) [1, 4]: 45800 ng·h/mL
- MRT inf [1, 4]: 5.98 h
- Tmax [1, 4]: 0.417 h

Compound: N#Cc1cc2c(c(-c3ccc(C(=O)O)c(O)c3)c1)OCC2 [Example 4, 4-(5-cyano-2,3-dihydrobenzofuran-7-yl)-2-hydroxybenzoic Acid]
- IC50 (xanthine oxidase): 60.4 nM
- IC50 (hURAT1): 499 nM
